# Tests used:
# [1] = tested on: healthy volunteer population; assay: Subjective effects in humans (psychedelic experience questionnaires, 5D-ASC, VAS); format: in vivo
# Procedure: Doses of any of the compounds herein can be 20-300 mg. […] Compounds can be administered a single dose or multiple doses, up to three times per day. […] The compounds can be administered before, during, or after the individual has the sensation of pain.
# Mice = assay: Acute pain: mouse tail flick; settings: for MPE, tail flick: model of acute pain (FIG. 3)
compound,measurement,setting,value
CN[C@H](C)Cc1ccc2c(c1)OCO2 [R-MDMA],subjective experience on standard psychedelic experience questionnaires,"[1]; R-MDMA 75 mg, 125 mg, 175 mg or 225 mg, compared to racemic MDMA",differentiated subjective experience
same,measures of emotional breakthrough,"[1]; R-MDMA 75 mg, 125 mg, 175 mg or 225 mg, healthy volunteer population",dose dependent changes
same,psychedelic-type effects (5D-ASC total OAV score),"[1]; R-MDMA 300 mg compared with S-MDMA (125 mg), expected",greater psychedelic-type effects
same,latency of the tail flick,"Mice; R-MDMA 17 and 30 mg/kg PO, 30, 60 and 90 minutes after administration, comparable to morphine (FIG. 2)",statistically significant increase
same,"MPE, tail flick",Mice; R-MDMA 17 and 30 mg/kg PO,60%
same,"% MPE (percent of maximal possible effect), tail flick","Mice; R-MDMA treated animals, 60 and 90 minutes post-treatment",significantly increased
CN[C@@H](C)Cc1ccc2c(c1)OCO2 [S-MDMA],subjective stimulation (VAS),"[1]; 125 mg of S-MDMA vs 125 mg of R-MDMA, postulated",greater subjective stimulation
"CN1CC[C@]23c4c5ccc(O)c4O[C@H]2[C@@H](O)C=C[C@H]3[C@H]1C5 [morphine, reference compound]","MPE, tail flick",Mice; morphine 4 mg/kg SC,80%
